Experiments:
[1] = test system: CD3+ T cells; experiment: T cell activation (CD25/CD69) by flow cytometry after co-culture with pre-treated MKN45; assay type: cell-based, human; conditions: CD3+ T cells from the same co-cultures; FIGS. 9D and 9E
Protocol: (§1) FIGS. 9A, 9B, 9C, 9D, and 9E. UAP1 inhibition with Ac4Glc2Bz in tumor cells improves T cell-mediated killing and T cell activation. FIG. 9A: Detection of UDP-HexNAc in MKN45 cell lysates after 2h treatment with Ac4Glc2Bz. FIGS. 9B and 9C: MKN45 were pre-treated with the indicated concentrations of Ac4Glc2Bz for 2 h. Afterwards, the compound was removed from the culture and T cells were added alongside TCBs at the indicated concentrations. Graphs show the % of remaining tumor cells after 105h from co-culture. DP47 TCB was used as negative control. FIGS. 9D and 9E: Flow cytometry of CD3+ T cells from the experiments in FIGS. 9B and 9C. T cell activation was assessed as previously described.
T cell-mediated killing assay was performed as described above. At the end of the experiment, T cells were collected from the co-culture plates and subjected to immunofluorescence for the following markers: CD3, CD8, CD25, CD69 and Near-IR live/dead staining (Thermo Scientific). Cells were gated on live CD3^+ cells and % Activated cells was calculated as such: […]. For the proliferation assay, T cells were pre-stained with CFSE (Biolegend) according to manufacturer's instructions, and then used in a T cell-mediated killing assay with either MKN45-NLR wt or MKN45-NLR KO cells for 4 days. Afterwards, cells were harvested and CFSE was assessed by FACS. […]

[2] = test system: MKN45; experiment: T cell-mediated killing assay, MKN45 pre-treated with compound, co-culture with T cells and TCBs; assay type: cell-based, human; conditions: MKN45 pre-treated 2 h, compound removed, T cells and TCBs added; FIGS. 9B and 9C
Protocol: as §1
25000 MKN45-nuclight red (NLR), 20000 A549-hCEA and 10000 B16F10-NLR tumor cells (wt or UAP1 ko) were seeded in one well of a 96 well-plate. Afterwards TCBs or siinfekl were given at the indicated concentrations. Pan T cells or PBMCs, mouse splenocytes (from C57/BL6 or OT-I mice) were immediately added at the indicated E:T ratios. Co-cultures were incubated at 37° C. and 5% C02 in the Incucye S3 instrument (Sartorius) for the indicated time. […] For MKN45-NLR and B16F10-NLR, T cell-mediated killing was calculated based on the red fluorescent signal coming from the tumor cells. All values were first transformed to fold-change to time 0, and % specific lysis was calculated as follows: […]

[3] = target: T1, UAP1 (Homo sapiens, UniProt Q16222); experiment: Detection of UDP-HexNAc by LC-MS in MKN45 cell lysates after 2h treatment; assay type: cell-based; conditions: MKN45 pre-treated for 2h, FIG. 9A
T1 construct: endogenous in cells; host or cells: MKN45 (human gastric adenocarcinoma cell line), wild type
Protocol: as §1
For the preparation of calibration samples Uridine-5′-diphospho-N-acetylglucosamine sodium salt was dissolved in an 80/20 mixture of water/methanol (v/v) to a concentration of 1.00 mg/ml. A stock solution for the preparation of QC samples was prepared separately using the same procedure with separate weighing of the reference substance. Further dilutions were done in water. For calibration and quality control samples, eight and three different concentrations of Uridine-5′-diphospho-N-acetylglucosamine (UDP HExNAc) spiked into phosphate-buffered saline (PBS) were used, respectively. Two different calibration ranges were applied. […]

T1 sequence (Q16222 whole entry): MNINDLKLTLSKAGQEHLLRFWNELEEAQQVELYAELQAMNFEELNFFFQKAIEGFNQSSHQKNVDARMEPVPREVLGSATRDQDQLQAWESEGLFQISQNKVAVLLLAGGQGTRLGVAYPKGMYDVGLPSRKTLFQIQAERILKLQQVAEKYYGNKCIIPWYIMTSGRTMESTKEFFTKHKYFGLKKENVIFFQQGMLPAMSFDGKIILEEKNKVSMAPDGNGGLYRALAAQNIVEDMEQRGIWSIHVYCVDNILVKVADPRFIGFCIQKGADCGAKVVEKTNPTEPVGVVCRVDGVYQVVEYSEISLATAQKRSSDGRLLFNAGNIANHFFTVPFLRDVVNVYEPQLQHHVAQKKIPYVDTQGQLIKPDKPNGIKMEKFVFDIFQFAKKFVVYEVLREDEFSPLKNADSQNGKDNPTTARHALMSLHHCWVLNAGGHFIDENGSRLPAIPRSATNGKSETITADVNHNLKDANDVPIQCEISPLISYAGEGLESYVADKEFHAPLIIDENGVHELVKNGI

## CC(=O)OCC1OC(OC(C)=O)C(NC(=O)c2ccccc2)C(OC(C)=O)[C@@H]1OC(C)=O (stereo partly drawn) [Ac4Glc2Bz]
[1]
  T cell activation: increased
[2]
  T cell mediated killing: increased T cell mediated killing
[3]
  inhibition of UAP1 (UDP-HexNAc detection): dose-dependent inhibition of UAP1
